In article PMC2952885 (ChemMedChem, 2009):

Molecular target: PDE7A1 catalytic domain (residues 130–482) (Homo sapiens, UniProt Q13946)
Assay: [3H]cAMP hydrolysis radioassay
Type: biochemical

Chain of PDE7A1 catalytic domain (residues 130–482) (Q13946 130-482): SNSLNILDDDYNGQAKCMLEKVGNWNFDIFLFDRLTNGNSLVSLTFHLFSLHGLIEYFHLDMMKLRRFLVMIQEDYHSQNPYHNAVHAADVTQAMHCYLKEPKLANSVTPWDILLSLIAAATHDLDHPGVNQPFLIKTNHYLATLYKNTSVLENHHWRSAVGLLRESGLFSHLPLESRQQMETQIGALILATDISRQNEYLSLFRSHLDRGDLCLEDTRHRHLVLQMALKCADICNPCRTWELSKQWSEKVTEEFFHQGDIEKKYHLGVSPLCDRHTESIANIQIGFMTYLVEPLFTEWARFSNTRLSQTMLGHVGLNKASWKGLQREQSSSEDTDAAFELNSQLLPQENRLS

**Q.** Which IC50 does the source give for `CSc1nc2ccsc2c(=O)n1-c1ccccc1` [compound 35, 2-Methylthio-4-oxo-3-phenyl-3,4-dihydrothieno[3,2-d]pyrimidine] here?
**A.** ~10 µM

**Q.** Which IC50 does the source give for `COc1ccc(C2CNC(=O)C2)cc1OC1CCCC1` (centres unmarked) [Rolipram, reference compound] here?
**A.** 129 ± 10 µM

**Q.** With `CC(C)Cn1c(=O)n(C)c(=O)c2[nH]cnc21` [IBMX, reference compound] as the compound, how does the IC50 read?
**A.** 8.1 ± 0.4 µM

**Q.** With `CSc1nc2ccsc2c(=O)n1-c1c(F)cccc1F` [compound 36, 3-(2,6-Difluorophenyl)-2-methylthio-4-oxo-3,4-dihydrothieno-[3,2-d]pyrimidine] as the compound, how does the IC50 read?
**A.** 0.8 ± 0.2 µM

**Q.** How did the IC50 turn out when `CSc1nc2c(sc3ccccc32)c(=O)n1-c1c(F)cccc1F` [compound 39, 3-(2,6-Difluorophenyl)-2-methylthio-4-oxo-3,4-dihydrobenzo-[4,5]thieno[3,2-d]pyrimidine] was run?
**A.** 0.41 ± 0.03 µM
